Data: patent US8349791B2, “Polypeptides that bind membrane proteins” (The Trustees of the University of Pennsylvania, priority 2006, dated 2013)
Peptide text beside a SMILES is read from it.

Assays:
αIIbβ3 [1] = molecular target: T1, αIIbβ3 (Homo sapiens, UniProt P08514); assay: Force spectroscopy (laser tweezers), platelets and fibrinogen-coated beads; type: cell-based
T1 construct: trapped from a suspension of gel filtered human platelets or CHO cells; endogenous in cells; host or cells: gel-filtered human platelets
Excerpt: (§1) Litvinov R I et al. Proc. Natl. Acad. Sci. USA. 99, 7426-31 (2002). Recombinant human OPN, prepared as previously described (Bennett J S et al. J. Biol. Chem. 272, 8137-40 (1997)) or purified human fibrinogen was covalently bound to 0.93 μm carboxylate-modified latex beads. Individual cells, trapped from a suspension of gel filtered human platelets or CHO cells, were manually attached to 5 μm diameter silica pedestals coated with polylysine. An OPN- or fibrinogen-coated bead, trapped by the laser light, was then brought into proximity of an immobilized cell, oscillated at 50 Hz, and then brought into repeated intermittent contact with the cell by micromanipulation. Data collection was initiated at the first contact between the bead and the cell. Rupture forces following repeated contacts were collected for periods of several seconds to one minute. Individual forces measured during each contact-detachment cycle were collected into 10 pN-wide bins. The number of events in each bin was then plotted against the average force for that bin after normalizing for the total number of interaction cycles. Thus, the percentage of events in a particular force range (bin) represents the probability of rupture events at that tension. Optical artifacts observed with or without trapped latex beads produce signals that appeared as forces below 10 pN. Therefore, rupture forces in this range were not considered when the data were analyzed. The polypeptide was added from a DMSO solution such that the final concentration of DMSO was no greater than 0.5%. All controls also had 0.5% DMSO in the buffer.
Beads coated with fibrinogen were brought into intermittent contact with immobilized platelets in the presence or absence of anti-αIIb and the rupture force was measured. Litvinov R I et al. J. Biol. Chem. 278, 51285-51290 (2003). In the absence of anti-αIIb, the binding probability of platelets and fibrinogen-coated beads decreased exponentially (FIG. 5a) with increasing force, consistent with a non-specific interaction of the beads with the platelet surface. Litvinov R I (2003). […]

[2] = molecular target: T2, CHO cells expressing αIIbβ3 (Homo sapiens, UniProt P08514); assay: Force spectroscopy (laser tweezers), CHO cells and fibrinogen-coated beads; type: cell-based, Chinese hamster; conditions: 0.5 μM polypeptide
T2 construct: expressed in transfected cells; host or cells: CHO cells
Excerpt: as §1, with “Optical artifacts observed with or without trapped latex beads produce signals that appeared as forces below 10 pN.” left out, “The polypeptide was added from a DMSO solution such that the final concentration of DMSO was no greater than 0.5%. All controls also had 0.5% DMSO in the buffer.” left out

β1 TM domain = molecular target: T3, β1 TM domain (Homo sapiens, UniProt P05556); assay: DN-TOXCAT heterodimerization; type: cell-based; conditions: coexpressed in bacterial membranes
T3 construct: expressed in transfected cells; host or cells: E. coli MM39, pDNToxR-Duet
Description: Both the affinity and specificity of the membrane protein-binding peptides for their targets when coexpressed in bacterial membranes were assessed with a DN-“TOXCAT” assay (FIGS. 3a-3c). In TOXCAT, a TM sequence of interest is fused to a ToxR protein (TM-ToxR) that binds to the ctx promoter as a dimer, which induces expression of chloramphenicol acetyltransferase (CAT) (W. P. Russ, D. M. Engelman, Proc. Natl. Acad. Sci. U.S.A. 96, 863 (1999); D. Langosch, B. Brosig, H. Kolmar, H. J. Fritz, J. Mol. Biol. 263, 525 (1996)). In the DN assay, the TM1-ToxR fusion protein is coexpressed with a second fusion protein (TM2-ToxR*) containing a nonfunctional mutant of the ToxR domain. TM-driven dimerization leads to a ToxR-ToxR* dimer that is unable to bind the ctx promoter or to induce CAT synthesis (FIG. 3a). The resulting decrease in CAT activity can be used to monitor the formation of a heterodimeric TM complex. In principle, this assay could be accomplished by adding an exogenous synthetic peptide (D. Gerber, N. Sal-Man, Y. Shai, J. Mol. Biol. 339, 243 (2004)); however, it is difficult to assure that different peptides will be similarly inserted into the Escherichia coli inner membrane.
For testing the specificity of the designed membrane protein-binding polypeptide sequences against the integrin TM domains, the designed sequences (anti-αIIb and anti-αV) were cloned into MCS1 of the Duet vector and the integrin TM domains into MCS2 of the Duet vector. In this configuration, the integrin TMs compete for the homodimers formed by the polypeptide sequences, with the decrease in CAT signal proportional to the extent of heterodimerization between a given integrin TM and polypeptide sequence relative to the homodimerization of the polypeptide sequence.
Single MM39 colonies containing pDNToxR-Duet constructs from selective plates were chosen, inoculated in 5 mL of LB medium containing 100 μg/mL ampicillin and grown to an OD600 of 0.2 at 37° C. with vigorous shaking. IPTG was added to the medium at a final concentration of 0.1 mM IPTG and grown to an OD600 of 0.7. Purification, immunoblotting, CAT ELISA and MalE complementation assays are essentially as described previously. Li, R., Gorelik, R., Nanda, V., Law, P. B., Lear, J. D., DeGrado, W. F. and Bennett, J. S. J. Biol. Chem. 2004, 279, 26666-26673 (2004). For immunoblotting, anti-MBP (NEB) was used for pccKAN (TOXCAT) constructs, whereas anti-myc (Covance) and anti-HA (Covance) were used for pDNToxR-Duet constructs. CAT ELISA results are an average of 3 independent replicates.

αIIbβ3 [3] = molecular target: T1, αIIbβ3; assay: FACS analysis of FITC-fibrinogen binding to platelets; type: cell-based
Description: Freshly isolated platelets were added to 200 μg/ml FITC-conjugated fibrinogen, then incubated with 20 μM ADP or 2 μM of the anti-αIIb polypeptide in the presence or in the absence of 5 mM EDTA for 3 min at room temperature. After incubation, the platelets were fixed with 0.37% formalin in PBS buffer for 10 min, then washed and examined by FACS analysis as previously reported. See Ulmschneider M B et al. Proteins: Struct. Funct. Bioinformat. 59, 252-265 (2005). The polypeptide was added from a DMSO solution such that the final concentration of DMSO was no greater than 0.5%. All controls also had 0.5% DMSO in the buffer.

FITC-αIIb-TM = molecular target: T4, FITC-αIIb-TM (Homo sapiens, UniProt P08514); assay: FRET heterodimeric association in micelles; type: binding; conditions: pH 7.5
T4 construct: designated αIIb-TM, spanning residues Trp968 to Lys989 of αIIb was synthesized; made in house; host or cells: chemical peptide synthesis (no expression host)
T4 sequence (P08514 999-1020 limits assumed): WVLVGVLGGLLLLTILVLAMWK
Description: FRET provided a more direct measure of the αIIb-TM/anti-αIIb heterodimeric association. […] Because the appropriate parameter for the association of polypeptides in micelles is generally the polypeptide concentration in the detergent micellar phase rather than the bulk polypeptide concentration, dissociation constants are often given in mole fraction units (polypeptide/detergent ratios).
Fluorescence resonance energy transfer (FRET) experiments were conducted on an ATF 105 spectrofluorometer (Aviv Biomedical, Inc., Lakewood, N.J.) using 0.3 cm path length cuvettes. […] Reference samples contain the same amount of FITC-αIIb-TM and non-labeled anti-αIIb to their corresponding FRET samples. Emission and excitation scans of the 1:1 mixture of FITC-αIIb-TM/coum-anti-αIIb were carried out to determine the optimal excitation and emission wavelengths. Excitation at 415 nm was selected. For the titration experiments in FIG. 2b, the emission at 500 nm was monitored. A slit width of 1.5 nm was used for both the excitation and emission. The signal and QC PMT high voltages were set at 737.3 V and 75.0 V, respectively. For the time-domain experiments, an experiment time of 600 seconds with 10 seconds of interval time and 10 seconds of average time was used. […] The fluorescence intensity values were used after correction of the inner filter effects using the standard method. […]

T1 sequence (P08514 891-1039 limits assumed): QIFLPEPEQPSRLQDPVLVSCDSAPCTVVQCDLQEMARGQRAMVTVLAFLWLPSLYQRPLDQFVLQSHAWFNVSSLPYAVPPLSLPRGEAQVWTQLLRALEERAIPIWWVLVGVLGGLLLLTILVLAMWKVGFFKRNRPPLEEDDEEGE
T1 sequence (P08514 32-887 partner limits assumed): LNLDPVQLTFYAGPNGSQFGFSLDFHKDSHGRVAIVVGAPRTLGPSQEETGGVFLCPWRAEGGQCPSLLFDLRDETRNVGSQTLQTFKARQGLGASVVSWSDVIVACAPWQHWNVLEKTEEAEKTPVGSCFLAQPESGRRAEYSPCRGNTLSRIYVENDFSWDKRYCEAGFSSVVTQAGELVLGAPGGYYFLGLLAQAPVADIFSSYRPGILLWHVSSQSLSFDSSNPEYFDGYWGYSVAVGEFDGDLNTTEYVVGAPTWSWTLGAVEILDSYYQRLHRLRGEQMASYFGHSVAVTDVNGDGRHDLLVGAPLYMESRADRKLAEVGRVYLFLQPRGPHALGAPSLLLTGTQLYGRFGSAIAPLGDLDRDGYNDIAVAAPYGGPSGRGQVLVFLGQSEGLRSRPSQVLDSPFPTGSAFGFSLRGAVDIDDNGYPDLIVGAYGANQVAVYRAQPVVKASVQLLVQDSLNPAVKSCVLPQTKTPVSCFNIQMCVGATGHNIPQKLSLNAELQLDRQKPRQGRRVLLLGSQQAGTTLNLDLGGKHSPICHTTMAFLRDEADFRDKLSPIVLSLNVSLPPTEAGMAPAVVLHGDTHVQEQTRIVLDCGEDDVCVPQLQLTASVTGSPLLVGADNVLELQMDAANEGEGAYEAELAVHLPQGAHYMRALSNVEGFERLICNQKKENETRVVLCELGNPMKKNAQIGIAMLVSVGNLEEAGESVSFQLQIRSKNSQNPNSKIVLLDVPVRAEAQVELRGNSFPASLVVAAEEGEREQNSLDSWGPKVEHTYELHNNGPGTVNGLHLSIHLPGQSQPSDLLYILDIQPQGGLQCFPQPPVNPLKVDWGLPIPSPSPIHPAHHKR
T1 sequence (P05106 27-788 partner): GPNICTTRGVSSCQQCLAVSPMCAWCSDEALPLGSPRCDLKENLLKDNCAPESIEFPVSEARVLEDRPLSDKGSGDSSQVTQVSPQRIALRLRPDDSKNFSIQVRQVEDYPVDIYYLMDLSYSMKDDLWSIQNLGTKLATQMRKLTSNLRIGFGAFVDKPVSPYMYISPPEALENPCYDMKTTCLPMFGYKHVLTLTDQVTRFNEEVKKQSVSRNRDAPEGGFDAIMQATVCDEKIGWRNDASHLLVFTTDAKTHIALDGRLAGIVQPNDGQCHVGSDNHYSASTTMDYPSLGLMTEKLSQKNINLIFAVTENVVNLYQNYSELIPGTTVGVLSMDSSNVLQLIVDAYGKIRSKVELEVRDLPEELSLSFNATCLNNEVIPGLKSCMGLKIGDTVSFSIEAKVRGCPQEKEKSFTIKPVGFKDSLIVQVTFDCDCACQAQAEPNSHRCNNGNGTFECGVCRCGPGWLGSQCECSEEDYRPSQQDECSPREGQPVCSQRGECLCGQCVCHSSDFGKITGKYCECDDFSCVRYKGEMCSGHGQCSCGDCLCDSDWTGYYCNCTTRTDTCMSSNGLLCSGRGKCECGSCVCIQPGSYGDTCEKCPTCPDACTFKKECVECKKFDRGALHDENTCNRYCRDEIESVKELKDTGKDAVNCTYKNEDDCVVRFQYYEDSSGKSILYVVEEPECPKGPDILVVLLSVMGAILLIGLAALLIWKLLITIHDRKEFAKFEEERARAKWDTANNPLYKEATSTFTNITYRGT
T2 sequence (P08514 891-1039 limits assumed): as the sequence (P08514 891-1039 limits assumed) above
T2 sequence (P08514 32-887 partner limits assumed): as the sequence (P08514 32-887 partner limits assumed) above
T2 sequence (P05106 27-788 partner): as the sequence (P05106 27-788 partner) above
T3 sequence (P05556 with tags, fused parts or gaps limits assumed): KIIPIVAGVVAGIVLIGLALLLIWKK

| Compound | peak of rupture force between platelets and fibrinogen-coated beads (αIIbβ3 [1]; 0.5 μM polypeptide) | rupture force peak after pre-incubation with αIIbβ3 antibody abciximab (αIIbβ3 [1]; 0.5 μM polypeptide) | rupture force between CHO cells expressing αIIbβ3 and fibrinogen-coated beads [2] | rupture force peak after pre-incubation of CHO cells with abciximab ([2]; abciximab 200 μg/ml) | interaction with β1 TM domain (β1 TM domain) | FITC-labeled fibrinogen bound by platelets (αIIbβ3 [3]; 2.0 μM polypeptide, compared with 20 μM ADP) | induced fibrinogen binding in the presence of EDTA (αIIbβ3 [3]; 5 mM EDTA) | apparent Kdiss for the αIIb-TM/anti-αIIb interaction (FITC-αIIb-TM) | rupture force / activation, platelets and fibrinogen-coated beads (αIIbβ3 [1]) |
| --- | --- | --- | --- | --- | --- | --- | --- | --- | --- |
| CC[C@H](C)[C@H](NC(=O)[C@H](Cc1ccccc1)NC(=O)[C@H](Cc1ccccc1)NC(=O)[C@@H]1CCCN1C(=O)[C@H](CC(C)C)NC(=O)[C@H](CC(C)C)NC(=O)[C@H](CCSC)NC(=O)[C@@H](NC(=O)[C@H](Cc1ccc(O)cc1)NC(=O)[C@H](C)NC(=O)[C@H](CCCCN)NC(=O)[C@@H](N)CCCCN)C(C)C)C(=O)NCC(=O)N[C@@H](CC(C)C)C(=O)N[C@@H](CC(C)C)C(=O)N[C@@H](CC(C)C)C(=O)NCC(=O)N[C@@H](CC(C)C)C(=O)N[C@H](C(=O)N[C@@H](Cc1ccccc1)C(=O)NCC(=O)NCC(=O)N[C@@H](C)C(=O)N[C@@H](Cc1ccccc1)C(=O)N[C@@H](Cc1c[nH]c2ccccc12)C(=O)NCC(=O)N1CCC[C@H]1C(=O)N[C@@H](C)C(=O)N[C@@H](CCCNC(=N)N)C(=O)N[C@@H](Cc1c[nH]cn1)C(=O)N[C@@H](CC(C)C)C(=O)N[C@@H](CCCCN)C(=O)N[C@@H](CCCCN)C(N)=O)[C@@H](C)CC [anti-αIIb] (H-KKAYVMLLPFFIGLLLGLIFGGAFWGPARHLKK-NH2; N-terminus assumed) | ~70 pN | eliminated the rupture force peak | peak of rupture force identical to that seen when platelets were incubated with ADP | not present | failed to significantly interact | comparable amounts | prevented | 3.2±0.5×10^−4 mole fraction units | – |
| AYVFILLSFILGTLLGFLVMFWA [anti-αV] | – | – | – | – | – | – | – | – | no peak of specific rupture force was observed |
